According to article PMC8080777, “Discovery, optimization, and evaluation of non-bile acid FXR/TGR5 dual agonists” (Scientific Reports, 2021):

Legend:
FXR = target: T1, FXR (Homo sapiens, UniProt Q96RI1); test: CHO cell-based FXR luciferase reporter assay (Indigo Biosciences); details: for FXR Efficacy (%) (1 µM) / FXR Efficacy (%) (10 µM) / FXR Efficacy (%) (0.1 µM): % vs OCA 1 µM as 100%
T1 construct: host or cells: CHO cells
T1 sequence (Q96RI1 1-486): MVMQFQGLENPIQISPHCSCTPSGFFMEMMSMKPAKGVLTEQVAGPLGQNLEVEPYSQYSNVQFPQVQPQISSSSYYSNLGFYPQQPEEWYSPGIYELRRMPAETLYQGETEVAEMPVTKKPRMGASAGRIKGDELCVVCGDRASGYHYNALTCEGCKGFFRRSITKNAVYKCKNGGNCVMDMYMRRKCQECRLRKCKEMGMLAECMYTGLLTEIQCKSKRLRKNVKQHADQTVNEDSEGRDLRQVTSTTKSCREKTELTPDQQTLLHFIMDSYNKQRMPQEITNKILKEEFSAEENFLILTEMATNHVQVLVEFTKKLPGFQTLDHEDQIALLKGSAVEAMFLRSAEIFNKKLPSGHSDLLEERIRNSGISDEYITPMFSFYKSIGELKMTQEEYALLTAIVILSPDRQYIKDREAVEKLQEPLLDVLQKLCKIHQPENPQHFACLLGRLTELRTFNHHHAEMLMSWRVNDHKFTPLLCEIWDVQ
Experimental: To evaluate direct agonist activities against FXR, test compounds were evaluated using a CHO cell-based FXR assay by Indigo Biosciences (State College, PA), in which cells were transfected with an FXR luciferase reporter system.
To directly evaluate the in vitro agonist activity towards FXR, test compounds were evaluated in CHO cells transfected with FXR responsive luciferase reporter (Nuclear Receptor & In Vitro Toxicology Solutions, Indigo Biosciences, State College, PA, USA). […] Each compound was tested in duplicate, and the average value was reported[35],[36].
(§1) The cell recovery medium (CRM, Human Farnesoid X Receptor (NR1H4, FXR reporter assay system, Indigo Biosciences, State College, PA, USA) and compound screening medium (CSM, Human Farnesoid X Receptor (NR1H4, FXR reporter assay system, Indigo Biosciences, State College, PA, USA) were removed from the freezer and thawed in a water bath at 37 °C. Test compounds were dissolved in dimethyl sulfoxide (DMSO, FUJIFILM Wako Pure Chemical Corporation, Osaka city, Osaka, Japan), and the treatment medium was prepared and diluted with CSM to achieve a final concentration of 0.2% total DMSO. The reporter cells were thawed by transferring 3.3 mL CRM at 37 °C into tubes of frozen cells. The tube containing reporter cells was recapped, and it was immediately place in a 37 °C water bath for 5 min. The reporter cells were gently inverted several times, and 100 µL cell suspension was dispensed into each well. One hundred microliters of treatment media was added into wells. Subsequently, the assay plate was kept at 37 °C, and it was incubated with 5% CO2 for 22 h. To prepare luciferase detection reagent (LDR), the detection substrate was gently mixed with detection buffer, media contents were removed from each well, and 100 µL LDR was added to each well of the assay plate. The assay plate was allowed to rest at room temperature for 5 min, and luminescence was quantified using the Multi-Mode Microplate Reader (FlexStation 3, Molecular Devices Inc., San Jose, CA, USA)[36].
S4. In vitro, in vivo assay, and selectvity.
To directly evaluate the in vitro agonist activity towards FXR, test compounds were evaluated in CHO cells transfected with FXR responsive luciferase reporter (Nuclear Receptor & In Vitro Toxicology Solutions, Indigo Biosciences, State College, PA, USA). Cells were incubated with […]
(FlexStation 3, Molecular Devices Inc., San Jose, CA, USA). Efficacies are reported relative to […]
reporter on of 1 µM. Each compound was tested in duplicate, and the average value was […]
as §1, with “sulfoxide (DMSO ,” for “sulfoxide (DMSO,”, “Osaka, Jap an),” for “Osaka, Japan),”, “a 37°C” for “a 37 °C”, “5% CO 2” for “5% CO2”, “using […]” for “using the Multi-Mode Microplate Reader (FlexStation 3, Molecular Devices Inc., San Jose, CA, USA)[36].”

TGR5 = target: T2, TGR5 (Homo sapiens, UniProt Q8TDU6); test: TGR5 cAMP assay in CHO cells transfected with TGR5 (cAMP Hunter eXpress, Discover X); assay type: cell-based
T2 construct: host or cells: CHO cells
T2 sequence (Q8TDU6 1-330): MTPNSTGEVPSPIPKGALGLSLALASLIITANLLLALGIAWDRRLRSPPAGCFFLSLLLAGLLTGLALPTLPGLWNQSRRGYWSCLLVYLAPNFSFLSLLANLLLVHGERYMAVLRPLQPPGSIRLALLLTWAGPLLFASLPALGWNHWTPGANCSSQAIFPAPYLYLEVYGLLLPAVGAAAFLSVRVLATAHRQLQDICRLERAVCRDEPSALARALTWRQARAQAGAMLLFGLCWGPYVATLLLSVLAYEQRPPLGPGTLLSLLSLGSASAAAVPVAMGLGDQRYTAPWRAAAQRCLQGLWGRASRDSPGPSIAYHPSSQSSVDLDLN
Experimental: TGR5 agonist activity was evaluated by transfecting CHO cells with TGR5 using the Discover X expression kit (cAMP Hunter eXpress GPCR Assay, Discover X Fremont, CA). Cells were incubated with test compounds for 0.5 h, and intracellular cAMP levels were measured using the multi-mode microplate reader.
(§2) TGR5 agonist activity was evaluated by transfecting CHO cells with TGR5 using the Discover X expression kit (cAMP Hunter eXpress Assay Kit, Discover X Fremont, CA, USA). Cells were incubated with the test compounds for 0.5 h, and intracellular cAMP levels were measured using Multi-Mode Microplate Reader (FlexStation 3, Molecular Devices Inc., San Jose, CA, USA).
Each compound was tested at concentrations of 10, 1, or 0.1 µM in duplicate (n = 2), with the average value shown.
S4. In vitro, in vivo assay, and selectvity. […]
In vitro TGR5 agonist assay protocol
as §2
Each compound was tested at concentrations of 10, 1, or 0.1 µM in duplicate (n=2), with the […]
parameter logistic equation, Y = min + (max - min)/(1 + 10^(n * (log10(EC50) - log10(conc)))), in […]

FXR Efficacy (%) (1 µM) (FXR)	TGR5 Efficacy (%) (10 µM) (TGR5; % vs INT-767 10 µM as 100%)	TGR5 agonist activity (in words) (TGR5)	FXR agonist activity (in words) (FXR)	FXR Efficacy (%) (10 µM) (FXR)	FXR Efficacy (%) (0.1 µM) (FXR)	TGR5 Efficacy (%) (1 µM) (TGR5; 1 µM, % vs INT-767 10 µM as 100%)	Compound
52.2	22.3	–	–	–	–	–	Cc1cnccc1C(=O)N(C[C@H]1CC[C@H](c2ccccc2)CC1)c1cc(Cl)cc(Cl)c1 [Compound 20a]
47.1	31.1	–	–	106.8	–	–	Cc1cnccc1C(=O)N(C[C@H]1CC[C@H](c2ccc(N(C)C)cc2)CC1)c1cc(Cl)cc(Cl)c1 [Compound 20b]
51.7	5.7	–	–	–	–	–	Cc1cccc([C@H]2CC[C@H](CN(C(=O)c3ccncc3C)c3cc(Cl)cc(Cl)c3)CC2)c1 [Compound 20c]
55.2	28.8	weak TGR5 agonist	partial FXR agonists	129.6	–	–	COc1ccc([C@H]2CC[C@H](CN(C(=O)c3ccncc3C)c3cc(Cl)cc(Cl)c3)CC2)cc1C [Compound 20d]
69.1	33.9	weak TGR5 agonist	partial FXR agonists	72.6	–	–	COc1ccc([C@@H]2CC[C@@H](CN(C(=O)c3ccncc3C)c3cc(Cl)cc(Cl)c3)C(C)C2)cc1C (stereo partly shown) [Compound 20e]
90.3	28.8	weak TGR5 agonist	partial FXR agonists	64.3	–	–	COc1ccc(C23CCC(CN(C(=O)c4ccncc4C)c4cc(Cl)cc(Cl)c4)(CC2)CC3)cc1C [Compound 20f]
51.1	-5.2	–	–	–	–	–	COc1ccc(C2C3CCC2CC(CN(C(=O)c2ccncc2C)c2cc(Cl)cc(Cl)c2)C3)cc1C (stereo not shown) [Compound 20g]
89.2	62.1	–	–	–	62.6	–	COc1ccc(C23CCC(CN(C(=O)c4ccncc4C)c4cc(F)cc(Cl)c4)(CC2)CC3)cc1C [Compound 20i]
71.7	71.1	–	–	–	13.5	21.5	CCc1cnccc1C(=O)N(CC12CCC(c3ccc(OC)c(C)c3)(CC1)CC2)c1cc(F)cc(Cl)c1 [Compound 20j]
91.5	72.4	–	–	–	58.5	–	Cc1cnccc1C(=O)N(CC12CCC(c3ccc4c(c3)CCO4)(CC1)CC2)c1cc(Cl)cc(Cl)c1 [Compound 20m]

Continued, compound first:

Compound	FXR Efficacy (%) (1 µM) (FXR)	TGR5 Efficacy (%) (10 µM) (TGR5; % vs INT-767 10 µM as 100%)	TGR5 agonist activity (in words) (TGR5)	FXR agonist activity (in words) (FXR)	FXR Efficacy (%) (10 µM) (FXR)	FXR Efficacy (%) (0.1 µM) (FXR)	TGR5 Efficacy (%) (1 µM) (TGR5; 1 µM, % vs INT-767 10 µM as 100%)
Cc1cnccc1C(=O)N(Cc1ccc(-c2ccc(N(C)C)cc2)cc1)c1cc(Cl)cc(N2CCC2)c1 [Compound 13n]	20.2	10.2	–	–	–	–	–
Cc1cnccc1C(=O)N(Cc1ccc(-c2ccc(N(C)C)cc2)cc1)c1cc(Cl)cc(-c2cnn(C(C)C)c2)c1 [Compound 13o]	68.8	-1.5	–	–	–	–	–
Cc1cnccc1C(=O)N(Cc1ccc(-c2ccc(N(C)C)cc2)cc1)c1cc(Cl)ccc1C [Compound 13p]	1.9	93.4	good potency against TGR5	–	–	–	–
Cc1cnccc1C(=O)N(Cc1ccc(-c2ccc(N(C)C)cc2)cc1)c1cc(Cl)ccc1Cl [Compound 13q]	1.5	75.2	good potency against TGR5	–	–	–	–
Cc1cnccc1C(=O)N(Cc1ccc(-c2ccc(N(C)C)cc2)cc1)c1cc(Cl)cc(Cl)c1C [Compound 13r]	8.6	91.9	good potency against TGR5	–	–	–	–
Cc1cnccc1C(=O)N(Cc1ccc(-c2ccc(N(C)C)cc2)cc1)c1cccc(-c2cnn(C(C)C)c2)c1C [Compound 13s]	61.0	24.1	moderate FXR/TGR5 agonist activity	moderate FXR/TGR5 agonist activity	–	–	–
Cc1cnccc1C(=O)N(Cc1ccc(-c2ccc(N(C)C)cc2)cc1)c1cccc(-c2cnn(C(C)C)c2)c1F [Compound 13t]	92.6	8.3	–	strong FXR agonist activities	–	–	–
COC(=O)/C=C/c1cccc(N(Cc2ccc(-c3ccc(N(C)C)cc3)cc2)C(=O)c2ccncc2C)c1F [Compound 13u]	90.3	-2.5	–	strong FXR agonist activities	–	–	–
CCc1cnccc1C(=O)N(Cc1ccc(-c2ccc(N(C)C)cc2)cc1)c1cc(Cl)cc(Cl)c1 [Compound 13v]	21.3	65.3	–	–	–	–	–
CN(C)c1ccc(-c2ccc(CN(C(=O)c3ccncc3C3CC3)c3cc(Cl)cc(Cl)c3)cc2)cc1 [Compound 13w]	22.7	73.1	–	–	–	–	–
CN(C)c1ccc(-c2ccc(CN(C(=O)c3ccncc3Cl)c3cc(Cl)cc(Cl)c3)cc2)cc1 [Compound 13x]	62.1	9.8	–	–	–	–	–
CN(C)c1ccc(-c2ccc(CN(C(=O)c3ccncc3Br)c3cc(Cl)cc(Cl)c3)cc2)cc1 [Compound 13y]	51.6	-2.0	–	–	–	–	–
CN(C)c1ccc(-c2ccc(CN(C(=O)c3ccncc3C(F)(F)F)c3cc(Cl)cc(Cl)c3)cc2)cc1 [Compound 13z]	10.6	24.4	–	–	–	–	–
